Data reported in paper PMC9291756, “Pharmacokinetics of enflicoxib in dogs: Effects of prandial state and repeated administration” (Journal of Veterinary Pharmacology and Therapeutics, 2021).
Like-named read-outs stand apart in the source and are kept apart here. Each block holds one compound with its values, some of them ahead of it.

Experiments:
plasma proteins = test: In vitro plasma protein binding (rapid equilibrium dialysis); format: in vitro ADME; details: pH 7.4, dog plasma, 160, 400 and 1600 ng/ml (0.4, 1, 4 µM), 37°C, mean values
Protocol: Equilibrium dialysis studies were performed using the Rapid Equilibrium Dialysis (RED) devices (Waters et al., [2008]) that consist of two chambers separated with a dialysis membrane with a cut‐off of 8.0 kDa (Pierce Biotechnology, ThermoFisher Scientific). The plasma protein binding was determined with blank canine plasma spiked with enflicoxib or its pyrazol metabolite. The highly bound compound tolterodine was used as a positive control. Stock solutions of the tested compounds were prepared at 10 mM concentration in DMSO and were immediately used or stored at −20 °C (±5°C) until further use.
Samples were prepared by spiking dog plasma with the compounds at three increasing concentrations (0.4 µM, 1 µM and 4 µM). Plasma samples were loaded (200 µl) in the donor chambers while the opposite chamber contained 350 µl of dialysis buffer (0.1 M phosphate buffer, pH 7.4). Dialysis was run at 37°C for 4 h with continuous shaking. […] The unbound fractions for enflicoxib or its pyrazol metabolite were determined by LC‐MS/MS using a modification of the previously described method. […]
The percent of binding to plasma proteins was calculated as: %Protein binding = (Cdonor‐Cacceptor)/Cdonor∗100. where: Cdonor = Concentration in the donor chamber after dialysis; Cacceptor = Concentration in the acceptor chamber after dialysis. […]
For each plasma sample, protein binding was determined in triplicate.

[1] = In vitro blood to plasma partitioning; details: female, Beagle, dog, whole blood
Protocol: Whole blood was obtained from 3 untreated female Beagle dogs (located in Isoquimen SL, Sant Feliu de Codines, Barcelona, Spain) and pooled into two different batches. Lithium heparin was used as anticoagulant. Blood was maintained in a rotator shaker at room temperature before use.
The derived working solutions were freshly prepared each day of experimentation.
The haematocrit (H), percent of total blood cells in whole blood samples (v/v), was determined before the assay. […] The samples were incubated separately (n = 3) at ca 37°C for 60 min under gentle agitation in a rotator shaker in polypropylene tubes. The concentration of organic solvent in the incubates was kept below 0.05% to prevent haemolysis. Reference plasma was incubated similarly in Eppendorf protein LoBind tubes as a surrogate matrix of whole blood to assess total drug concentration (Cb).
For the enflicoxib and pyrazol metabolite determination, the plasma specimens were mixed with AcN containing the internal standard celecoxib for protein precipitation (1:3 ratio plasma: solution). […] After centrifugation, the supernatants were diluted with 0.1% FA in water: AcN (90:10) and injected into the LC‐MS/MS system. […] Blank samples were processed as described before, and were used to check the selectivity and carry‐over of the LC‐MS/MS analytical runs.
The quantification of each test item in plasma was performed using calibration curves ranging from 0.05 to 20 µg/ml. […] In both cases, the LC‐MS/MS response ratios (peak area of analyte/peak area Internal Standard) were used for quantitation.
The analyte concentration obtained from LC‐MS/MS analysis in each sample was used to calculate the blood‐plasma concentration ratio (C b/C p) as follows:
C b/C p = [(concentration in reference plasma; Equivalent to concentration in whole blood) / (concentration in plasma from whole blood)].
From these values, the red blood cells (RBC) to plasma ratio (K RBC/PL) was also calculated using the following equation: KRBC/PL=1/H×Cb/Cp‐1+1 where H: haematocrit.

COX‐2 = details: in vitro and in vivo; ref Iñiguez et al., 2010; Wagemakers et al., 2009; cited from earlier work
[2] = parameters: method as in Ecuphar/Animalcare internal data; details: ref Ecuphar/Animalcare internal data; cited from earlier work
[3] = Single intravenous dose pharmacokinetic study
Protocol: (§1) For the IV administration, a stable 2 mg/ml enflicoxib injectable solution was prepared in a vehicle containing 20% ethanol, 8% kolliphor HS‐15 and 72% water, and sterilised using a ≤0.22‐µm syringe filter. To avoid administering an excessive volume of product, dogs in the IV group received a single dose of 2 mg/kg and were followed for 35 days. A 22‐gauge ¾” catheter was introduced into the cephalic vein, using aseptic technique. A syringe with sterile saline was used to test the patency of the vein. The calculated volume of the solution was slowly administered through the catheter over approximately 1 min. Approximately 1–2 ml of sterile saline was used to flush the catheter following drug administration.
(§2) Blood samples (2 ml) were collected from the jugular vein in K3EDTA tubes for determination of plasma concentrations of enflicoxib and its metabolites, at the following time points:
(§3) Blood samples were centrifuged within 30 min after collection at 2500 g for 10 min at ca. +5 °C. The resultant plasma was divided into 2 aliquots and frozen at ca. −20°C until analysis.
(§4) Method for enflicoxib and its pyrazol metabolite in plasma involved its extraction from 100 µL samples by solid phase extraction (Oasis MCX 30 μm 96‐well plates, 10 mg; Waters) and separated by reverse‐phase liquid chromatography on a Luna PFP (2) column (3 μm, 50 × 4.6 mm; Phenomenex), in gradient mode elution using 0.1% FA in water and MeOH 60:40 (v/v) as mobile phase flushed a flow rate of 1 ml/min. Celecoxib was used as internal standard.
(§5) The pharmacokinetic parameters were obtained from the individual plasma concentration‐time profiles of enflicoxib or its metabolites in each animal, by non‐compartmental analysis using Phoenix® WinNonLin® software (version 8.0. Pharsight Corporation). For all calculations, values below lower limit of quantification (BLLOQ) were considered as “0” except trailing concentrations, which were excluded from calculations.
(§6) Additional pharmacokinetic parameters calculated for the IV treatment were plasma clearance (CL) as CL = Dose/AUCinf; volume of distribution at steady‐state (Vss) as Vss = MRTINF × CL; volume of distribution based on the terminal phase (Vz) as Vz = CL/ λz); and Mean resident time (MRT) was calculated as MRT = AUMC/AUC, with AUMC being the area under the first moment curve. For enflicoxib, C0 was calculated as the extrapolated plasma concentration at time zero after IV administration.

[4] = Single oral dose pharmacokinetic study, fed or fasted; details: for bioavailability / half-life / Tmax: both, Beagle, dog, plasma; for bioavailability: F% (absolute oral bioavailability); for Tmax: single oral 8 mg/kg enflicoxib, median [min-max]
Text: (§7) Thirty healthy Beagle dogs (males and females) of 1–5 years old at the time of dosing, and bodyweight between 7.4 and 12.3 kg, were housed indoors in climate‐controlled facilities in accordance with accepted laboratory animal care and use guidelines. As the animals belonged to the same centre, they were acclimatised for 5 days before study initiation.
(§8) Dogs were offered approximately 400 g of pelleted canine feed once daily. Fresh potable water was offered ad libitum. All dogs, except those in the Oral‐Fed group, were fasted overnight before dosing and food was offered after the 4‐h blood collection. Dogs in the Oral‐Fed group were supplied with 50% of their daily food ration approximately 1 h before administration, and the remainder of the food was given after the first 15‐min blood collection period post administration.
(§9) The oral groups received a single oral nominal dose of 8 mg/kg of enflicoxib (Daxocox® tablets for dogs, Ecuphar/Animalcare) in its final formulation and were followed for 126 days. The dog’s mouth was opened, the dose placed towards the back of the tongue, and 5 ml of water was administered following the dose to aid in swallowing.
as §2
(§10) Oral groups: Before administration (pre‐dose; Day 1 to Day 0), 15 and, 30 min, 1, 2, 4, 6, 8, 12, 24, 48 h and 3, 4, 6, 7, 10, 14, 21, 28, 42, 56, 70, 84, 98, 112, and 126 days post administration, with the aim to characterise the complete pharmacokinetic profile of the pyrazol metabolite.
as §3
(§11) Plasma concentrations of enflicoxib and its metabolites were measured by two HPLC methods coupled with MS/MS detection (MRM) in negative ion electrospray mode.
as §4, §5

[5] = Distribution into synovial fluid after IV administration; details: day 35 after IV 2 mg/kg enflicoxib
Text: (§12) The distribution into synovial fluid was prospectively investigated in samples corresponding to the last collection timepoint after the IV administration.
(§13) Samples of synovial fluid from the 10 dogs in the IV group were obtained under anaesthesia at 35 days post administration. Blank synovial fluid was obtained from 8 non‐dosed dogs at the same study facilities and pooled before being used for preparation of calibration curve and quality control samples for the qualification of the bioanalytical method.
(§14) Method for hydroxylated pyrazoline metabolite in plasma and for enflicoxib, pyrazol metabolite and hydroxylated pyrazoline metabolite in synovial fluid used the protein‐precipitation technique for extraction from dog samples (50 µl). The analytes were separated by reverse‐phase liquid chromatography on a Kinetex F5 100 Å column (100 × 3.0 mm; Phenomenex), in gradient mode elution using 0.1% FA in water and MeOH as mobile phase flushed a flow rate of 0.75 ml/min. Celecoxib was also used as internal standard.
(§15) For synovial fluid samples, the ratio of synovial fluid to plasma for enflicoxib and its metabolites was calculated at day 35 after IV administration.

[6] = Multiple dose oral toxicokinetic (target animal safety) study; details: for AUC / Cmax: both, Beagle, dog, plasma, po; for AUC: AUC168, group 1X; for accumulation ratio, loading dose normalised to maintenance dose: weeks 13 and 31 vs week 1, all dose levels
Text: (§16) This study was designed as a Target Animal Safety (TAS) study, to assess the effects of repeated oral administrations of enflicoxib at either the recommended dose (1X), three times the dose (3X) or five times the dose (5X), that were compared to an untreated group (placebo, 0X) and followed the internationally agreed TAS guideline (VICH GL[43], [2008]). Blood samples were taken during the study to assess the dose‐exposure proportionality after single and repeated dose administrations.
(§17) Thirty‐two male and female healthy Beagle dogs, 8–10 months old and experimentally naïve, were obtained from a laboratory animal supplier. All animals were acclimatised for 28 days before study initiation. All dogs were housed in pairs of the same sex and dose group in indoor pens under temperature and humidity‐controlled conditions (15 to 24°C, 40–70% RH). Artificial lighting was provided for approximately 12 h per day. […] For each group, periods of exercise and socialisation were permitted daily. Animals were fed daily with 400 g of a certified commercial pelleted diet.
(§18) Dogs were stratified by sex and weight, (16 males weighing 6.7–9.9 kg and 16 females weighing 5.3–7.0 kg) and allocated to four groups (0X, 1X, 3X and 5X) using a pseudo‐random body weight stratification procedure, which yielded groups of four dogs of each sex with approximately equal mean body weight. Dogs were distributed in a block of several adjacent pens and identified by a microchip inserted shortly after arrival.
(§19) Enflicoxib was supplied as commercial Daxocox® tablets containing 15, 30, 45, 70 or 100 mg of enflicoxib (Ecuphar/Animalcare). The number and size of the tablets administered orally were calculated weekly based on the most recent body weights and the target dose level required. Tablets were administered once weekly, for a total of 13 weeks (5X group) or 32 weeks (0X, 1X and 3X groups). Tablets administration was followed by 10–20 ml tap water to facilitate passage of drug to the stomach.
(§20) Blood samples were collected as described for the determination of blood concentrations of enflicoxib and its pyrazol metabolite. The sampling schedule was at 6 h (on week 1 only), 24, 48, 72, 96, 120, 144 and 168 h post dose in weeks 1, 13 and 31, Additionally, weekly samples were taken prior to each dose throughout the study. Plasma was obtained and stored as described before.
(§21) The AUCt and AUCinf values were calculated with linear trapezoidal rule, and the extrapolation of AUCt to obtain AUCinf was performed using the observed concentration at the last time point. Due to the limited time between doses, the terminal rate constants (λz), and corresponding terminal half‐lives (t1/2), were calculated only for the parent compound. […] The accumulation ratios, based on AUC168 values of both compounds, were calculated at weeks 13 (last experimental week for the 5X group) and 31 (last experimental week for the other groups).
(§22) For the repeated oral dose study, analyses of variance were performed for week 1 and week 13 data separately, including all three dose levels to assess dose proportionality. For weeks 13 and 31, the analysis was done for the low and mid dose levels only, adjusted to 1 mg/kg. The factors in these analyses were dose group, time, sex and their interactions. Animal was included as a blocking factor since the same animals were bled on each sampling day. The data were logarithmically transformed prior to its analysis using SAS 9.4 (SAS Institute (2002) SAS OnlineDoc® Version Nine. SAS Institute Inc.).

[7] = dog, in vivo
Text: as §7, §8, §9, §2, §10, §3, §11, §4, §5

[8] = dog, in vivo, iv, 2 mg/kg
Protocol: as §1, §2, §3, §4, §5, §6

[9] = dog, in vivo, iv, 2 mg/kg; remark: listed apart in the source
Text: as §12, §13, §14, §15

[10] = dog, in vivo; remark: listed apart in the source
Text: as §16, §17, §18, §19, §20, §21, §22

[11] = both, Beagle, dog, plasma, iv, 2 mg/kg

SMILES: NS(=O)(=O)c1ccc(N2N=C(C(F)(F)F)C[C@H]2c2ccc(F)cc2F)cc1 (racemic) [Enflicoxib, 4‐(5‐(2,4‐difluorophenyl)‐3‐(trifluoromethyl)‐4,5‐dihydro‐1H‐pyrazol‐1‐yl) benzenesulfonamide]
fraction unbound at 4 h (plasma proteins): 0.0099 to 0.0262 | blood plasma ratio at 60 min, 1 µg/ml [1]: 1.07 | blood plasma ratio at 60 min, 5 µg/ml [1]: 0.66 | blood plasma ratio at 60 min, 15 µg/ml [1]: 0.66 | inhibition of COX‐2 enzymatic activity (COX‐2): potent inhibitors | solubility in water [2]: practically insoluble | t1/2 ([3]; IV 2 mg/kg enflicoxib, harmonic mean [min-max], pyrazol metabolite n=4): 19.77 [11.2–29.7] h | Vd [3, 11]: 4 L/kg | clearance [3, 11]: 2.33 mL/min/kg | half-life ([3]; both, Beagle, dog, plasma, iv, 2 mg/kg, t1/2, IV 2 mg/kg enflicoxib, harmonic mean [min-max], pyrazol metabolite n=4): 20 h | bioavailability ([4]; oral, 8 mg/kg, oral 8 mg/kg fasted vs IV 2 mg/kg): 44% | bioavailability ([4]; oral, 8 mg/kg, oral 8 mg/kg fed vs IV 2 mg/kg): 63% | half-life ([4]; other: IV or oral, whatever the feeding condition, terminal elimination half‐life (t1/2), all routes of administration (IV or oral, whatever the feeding condition)): 20 h | bioavailability ([4]; po, 8 mg/kg, oral 8 mg/kg fed vs IV 2 mg/kg): 63.4% | Tmax ([4]; po, 8 mg/kg, fasted): 4 h | Tmax ([4]; po, 8 mg/kg, fed): 2 h | half-life ([4]; po, 8 mg/kg, t1/2, single oral 8 mg/kg enflicoxib, fasted, harmonic mean): 18.3 h | half-life ([4]; po, 8 mg/kg, t1/2, single oral 8 mg/kg enflicoxib, fed, harmonic mean): 19.7 h | F% (absolute oral bioavailability) ([4]; oral 8 mg/kg fasted vs IV 2 mg/kg): 44.1% | increase of extent of absorption and plasma exposure by food ([4]; oral 8 mg/kg, fed vs fasted): 43% | Frel% (relative oral bioavailability) ([4]; oral fed vs oral fasted, 8 mg/kg): 143.3% | synovial fluid concentration [5]: BLLOQ | tolerability ([6]; all three dose levels (1X, 3X, 5X), weekly oral, all dogs): well tolerated | AUC ([6]; 4 mg/kg, week 13, mean ± SD): 47600 ng·h/mL | AUC ([6]; 4 mg/kg, week 31, mean ± SD): 64000 ng·h/mL | Cmax ([6]; 4 mg/kg, group 1X (8 + 4 mg/kg weekly oral), week 1, mean ± SD, n=8): 2020 ± 461 ng/mL | Cmax ([6]; 4 mg/kg, group 1X, week 13, mean ± SD): 878 ± 319 ng/mL | Cmax ([6]; 4 mg/kg, group 1X, week 31, mean ± SD): 1450 ± 374 ng/mL | AUC ([6]; 8 mg/kg, week 1, mean ± SD): 87900 ng·h/mL | Cmax ([6]; 12 mg/kg, group 3X, week 13, mean ± SD): 2760 ± 817 ng/mL | Cmax ([6]; 12 mg/kg, group 3X, week 31, mean ± SD): 3380 ± 1120 ng/mL | Cmax ([6]; 20 mg/kg, group 5X (40 + 20 mg/kg), week 1, mean ± SD): 9590 ± 2040 ng/mL | Cmax ([6]; 20 mg/kg, group 5X, week 13, mean ± SD): 4390 ± 1050 ng/mL | Cmax ([6]; 24 mg/kg, group 3X (12 + 24 mg/kg as printed), week 1, mean ± SD): 6050 ± 1390 ng/mL | Normalised accumulation ratio ([6]; group 1X, week 13 vs week 1, based on AUC168): 0.93 | Normalised accumulation ratio ([6]; group 1X, week 31 vs week 1): 1.05 | Normalised accumulation ratio ([6]; group 3X, week 13 vs week 1): 0.9 | Normalised accumulation ratio ([6]; group 3X, week 31 vs week 1): 1.15 | Normalised accumulation ratio ([6]; group 5X, week 13 vs week 1): 1 | time of Cmax ([6]; week 1 after loading dose, all groups, 6 h = first sampling time): 6 h | pre‐dose plasma concentration ([6]; week 13, all groups): below 100 ng/ml | correlation coefficient, adjusted PK parameters (Cmax, AUC168) vs dose level ([6]; weeks 1 and 13, actual doses, linear regression): higher than 0.8 | accumulation ratio, loading dose normalised to maintenance dose [6]: ~1 | accumulation ratio, loading dose normalised to maintenance dose ([6]; listed as parent compound): less than 1 | accumulation ratio based on AUC168 (not normalised) ([6]; weeks 13 and 31 vs week 1, all three dose levels): approximately 0.5

F% (absolute oral bioavailability) [7]: 49.3% | mean terminal elimination half‐life (t½) [7]: 408 h | terminal elimination half‐life (t1/2) [7]: 336 to 406 h | AUCinf ([7]; po, 8 mg/kg): 4,22,700 ± 2,54,500 (60.2) ng·h/ml | AUClast ([7]; po, 8 mg/kg): 3,91,500 ± 2,55,100 (65.2) ng·h/ml | Cmax ([7]; po, 8 mg/kg): 890.3 ± 551.3 (61.9) ng/ml | Tmax ([7]; po, 8 mg/kg): 120.00 [48.00–336.00] h | Tmax, oral doses (fed and fasted), median ([7]; po, 8 mg/kg): 120 to 144 h | t1/2 ([7]; po, 8 mg/kg): 353.9 [255–491] h | AUClast [8]: 1,56,500 ± 39,810 (25.4) ng·h/ml | Cmax [8]: 384.5 ± 123.8 (32.2) ng/ml | MRTlast [8]: 329.5 ± 27.46 (8.3) h | Tmax [8]: 96 [48–96] h | ratio synovial fluid versus plasma [9]: 0.031-0.078 | accumulation ratio between weeks 13 and 31, range of dogs [10]: 0.56-1.49 | accumulation ratio week 31 vs week 13 [10]: around 1.3 | correlation coefficient, adjusted PK parameters (Cmax, AUC168) vs dose level [10]: > 0.9
SMILES: NS(=O)(=O)c1ccc(-n2nc(C(F)(F)F)cc2-c2ccc(F)cc2F)cc1 [Pyrazol metabolite]
inhibition of COX‐2 enzymatic activity (COX‐2): potent inhibitors
